This is an account of results in the NIST ThermoML archive (doi:10.1016/j.tca.2013.03.031).

For the data set the following is noted: 101.33 kPa, Liquid, Vibrating tube method.

± gives the expanded uncertainty stated by the source.

Take `CCCCCC(C)=O` [2-heptanone]: the mass density runs as follows: (288.15 K) 819.786 ± 0.65 kg/m3; (293.15 K) 815.497 ± 0.64 kg/m3; (298.15 K) 811.198 ± 0.64 kg/m3; (303.15 K) 806.887 ± 0.63 kg/m3; (308.15 K) 802.562 ± 0.63 kg/m3; (313.15 K) 798.222 ± 0.63 kg/m3.

For `ClCCCl` [1,2-dichloroethane], the mass density by setting is: (288.15 K) 1259.99 ± 0.45 kg/m3; (293.15 K) 1252.77 ± 0.44 kg/m3; (298.15 K) 1245.49 ± 0.44 kg/m3; (303.15 K) 1238.18 ± 0.43 kg/m3; (308.15 K) 1230.84 ± 0.42 kg/m3; (313.15 K) 1223.46 ± 0.42 kg/m3.

In the case of `CCC(C)=O` [butanone], the mass density is, setting by setting: (288.15 K) 810.262 ± 0.24 kg/m3; (293.15 K) 805.058 ± 0.24 kg/m3; (298.15 K) 799.828 ± 0.24 kg/m3; (303.15 K) 794.565 ± 0.24 kg/m3; (308.15 K) 789.273 ± 0.24 kg/m3; (313.15 K) 783.946 ± 0.24 kg/m3.

For the molecule `O=C1CCCCC1` [cyclohexanone], the mass density (288.15 K) was 951.178 ± 0.23 kg/m3; the mass density (293.15 K) amounted to 946.713 ± 0.23 kg/m3; the mass density (298.15 K) is on record as 942.243 ± 0.23 kg/m3; the mass density (303.15 K) came out at 937.767 ± 0.23 kg/m3; the mass density (308.15 K) is listed as 933.285 ± 0.23 kg/m3; the mass density (313.15 K) is given as 928.795 ± 0.23 kg/m3.

Consider `ClC(Cl)C(Cl)Cl` [1,1,2,2-tetrachloroethane], for which the mass density runs as follows: (288.15 K) 1601.45 ± 2.3 kg/m3; (293.15 K) 1593.65 ± 2.3 kg/m3; (298.15 K) 1585.87 ± 2.3 kg/m3; (303.15 K) 1578.07 ± 2.3 kg/m3; (308.15 K) 1570.27 ± 2.2 kg/m3; (313.15 K) 1562.45 ± 2.2 kg/m3.
